Values quoted from earlier work as cited in patent US9842198B2, “Screening method and systems utilizing mass spectral fragmentation patterns” (McMaster University, priority 2012, dated 2017).
*1 amine or outer side, *2 acyl side, *3 side chain or, on linkers, in order; H or OH if unused. Where a SMILES comes first, the peptide text is derived from it. Bridges are numbered along the chain shown (N, C = ends). [ ]: non-standard residue; d: D form. The star is where a group is joined. Cinnamoyl(2-(1Z-pentenyl)) = CCC/C=C\c1ccccc1/C=C/C(=O)*; X1 = CN(/C(=C/c1ccc(O)cc1)C(=O)[*:2])[*:1]; aThr = C[C@H](O)[C@H](N)C(=O)O

System: G-protein coupled receptor NK-1
Conditions: natural ligands are tachykinin peptide hormones such as neurokinin A

CCC/C=C\c1ccccc1/C=C/C(=O)N[C@@H]1C(=O)N(C)/C(=C/c2ccc(O)cc2)C(=O)N[C@@H](CC(C)C)C(=O)N[C@H](Cc2ccccc2)C(=O)N[C@@H]([C@H](C)O)C(=O)N[C@@H](CC(N)=O)C(=O)N[C@@H](CO)C(=O)O[C@@H]1C [WS-9326A] ({Cinnamoyl(2-(1Z-pentenyl))}-T[X1]L[dF][aThr]NS; ester 1-C)
antagonist activity at NK-1: potent antagonist
